Results published in ChEMBL document CHEMBL1157675, “Anti-inflammatory diterpenes from the seeds of Vitex negundo” (Bioorg Med Chem, 2010).
Calls of active or inactive are those of the source. The calls are words filed in the database; no cut-off is given here.

Columns and labels:
RAW264.7 [1] = assay: Antiinflammatory activity in mouse RAW264.7 cells assessed as inhibition of LPS-induced NO production after 24 hrs by Griess reagent method; assay type: functional, cell-based; conditions: RAW264.7, 24 h
RAW264.7 [2] = assay: Antiinflammatory activity in LPS-stimulated mouse RAW264.7 cells assessed as reduction of COX2 protein expression at 50 uM after 24 hrs by Western blot analysis relative to control; assay type: functional; conditions: RAW264.7, 24 h
RAW264.7 [3] = assay: Antiinflammatory activity in LPS-stimulated mouse RAW264.7 cells assessed as reduction of iNOS protein expression at 50 uM after 24 hrs by Western blot analysis relative to control; assay type: functional; conditions: RAW264.7, 24 h
RAW264.7 [4] = assay: Cytotoxicity against mouse RAW264.7 cells up to 50 uM after 24 hrs by MTT assay; assay type: cell-based; conditions: raw264.7, 24 h
RAW264.7 [5] = assay: Antiinflammatory activity in LPS-stimulated mouse RAW264.7 cells assessed as reduction of COX2 protein expression at 5 uM after 24 hrs by Western blot analysis relative to control; assay type: functional; conditions: for response, % of control at 5 µM: RAW264.7, 24 h, values are per cent of control
RAW264.7 [6] = assay: Antiinflammatory activity in LPS-stimulated mouse RAW264.7 cells assessed as reduction of iNOS protein expression at 5 uM after 24 hrs by Western blot analysis relative to control; assay type: functional; conditions: RAW264.7, 24 h, values are per cent of control

SMILES | IC50 (RAW264.7 [1]) | inhibition at 50 µM (RAW264.7 [2]) | inhibition at 50 µM (RAW264.7 [3]) | Activity (RAW264.7 [4]) | response, % of control at 5 µM (RAW264.7 [5]) | response, % of control at 5 µM (RAW264.7 [6]) | inhibition (RAW264.7 [5])
CC(C)c1ccc(O)c(CC[C@@H]2[C@@H](C)CC[C@H](O)C2(C)C)c1 (relative stereo) [NEGUNDOIN F] | 1160 nM | – | – | Non-toxic | 59.7% | 58.2% | –
CC(=O)O[C@H]1CC[C@@]2(C)[C@@H](CC[C@@H](C)[C@]23CC/C(=C\C=O)O3)C1(C)C (relative stereo) [NEGUNDOIN C] | 120 nM | – | – | Non-toxic | 2.06% | 0.4% | –
CC(=O)O[C@H]1CC[C@@]2(C)[C@@H](CC[C@@H](C)[C@]23CC/C(=C\C(=O)O)O3)C1(C)C (relative stereo) [NEGUNDOIN B] | 23400 nM | – | – | Non-toxic | – | – | –
CC(=O)O[C@H]1CC[C@@]2(C)[C@@H](CC[C@@H](C)[C@]23CC[C@@]2(CCO[C@H]2O)O3)C1(C)C (relative stereo) [NEGUNDOIN E] | 230 nM | – | – | Non-toxic | 26.4% | 41% | –

Continued, in another order:

IC50 (RAW264.7 [1]) | SMILES | inhibition at 50 µM (RAW264.7 [2]) | inhibition at 50 µM (RAW264.7 [3]) | Activity (RAW264.7 [4]) | response, % of control at 5 µM (RAW264.7 [5]) | response, % of control at 5 µM (RAW264.7 [6]) | inhibition (RAW264.7 [5])
45500 nM | COc1ccc2c(c1)c(CC(=O)O)c(C)n2C(=O)c1ccc(Cl)cc1 [INDOMETHACIN] | 59.9% | 86.5% | – | – | – | –
9830 nM | COC(=O)/C=C1\CC[C@@]2(O1)[C@H](C)CC[C@H]1C(C)(C)[C@@H](OC(C)=O)CC[C@@]12C (relative stereo) [NEGUNDOIN A] | – | – | Non-toxic | – | 68.2% | inactive
700 nM | C=C[C@@]1(C)CCC2C(=C[C@@H](O)[C@H]3C(C)(C)CCC[C@]23CO)C1=O (relative stereo) [NEGUNDOIN G] | – | – | Non-toxic | – | – | –
4390 nM | CO[C@H]1OC(=O)C[C@@]12CC[C@@]1(O2)[C@H](C)CC[C@H]2C(C)(C)[C@@H](OC(C)=O)CC[C@@]21C (relative stereo) [NEGUNDOIN D] | – | – | Non-toxic | – | 62% | inactive
